From patent publication US5852007A, “Cysteine and serine protease inhibitors containing D-amino acid at the P2 position, methods of making same, and methods of using same” (priority 1997, dated 1998)
pIC50: −log10 of the molar value. Like-named read-outs stand apart in the source and are kept apart here. Square brackets hold non-standard residues; d marks the D form. Peptide text beside a SMILES is read from it. * marks the point of attachment. d(hPhe) = N[C@H](CCc1ccccc1)C(=O)O; dPhg = N[C@@H](C(=O)O)c1ccccc1; Cbz = O=C(OCc1ccccc1)*; Ms = CS(=O)(=O)*

Tests used:
Type in all cases: biochemical
cathepsin B = target: T1, cathepsin B (Homo sapiens, UniProt P07858); assay: Inhibition of cathepsin B; conditions: for inhibition at 1 µM: read-out: Cat B % I @ 1 uM; for pIC50: read-out: Cat B IC50
T1 construct: purchased Calbiochem 219364
Method: (§1) Additionally,the order of reagents added to the plate was altered because both enzymes are constitutively active. Following inhibitor addition to the plates, appropriate 2× concentrated stock dilutions of the enzyme preparations were made in assay buffer and 100 μl added to each well. The assay was initiated by addition of 100 μl of 2× concentrated stock dilution of substrate in assay buffer.

α-chymotrypsin = target: T2, α-chymotrypsin (Bos taurus, UniProt P00766); assay: Inhibition of α-chymotrypsin; conditions: for inhibition at 10 µM: read-out: Chymotrypsin % I @ 10 uM
T2 construct: purchased Sigma Chem. Co. C-3142
Method: Additionally, because α-chymotrypsin is not a calcium sensitive enzyme and is constitutively active, following addition of inhibitor stocks to the 96 well plates, 100 μl of a 2-fold concentrated stock of enzyme in dilution buffer was first added and the reaction started by addition of 100 μl of a 2-fold concentrated stock of substrate in assay buffer. Substrate hydrolysis was monitored every 5 minutes up to 30 minutes using a Fluoroskan II ([…]).

cathepsin L = target: T3, cathepsin L (Homo sapiens, UniProt P07711); assay: Inhibition of cathepsin L; conditions: for inhibition at 1 µM: read-out: Cat L % I @ 1 uM
T3 construct: purchased Calbiochem 219402
Method: as §1

[1] = target: T4, Recombinant human calpain I (Homo sapiens, UniProt P07384); assay: Inhibition of calpain I activity; conditions: Table III
T4 construct: made in house
T4 sequence (P07384 1-714): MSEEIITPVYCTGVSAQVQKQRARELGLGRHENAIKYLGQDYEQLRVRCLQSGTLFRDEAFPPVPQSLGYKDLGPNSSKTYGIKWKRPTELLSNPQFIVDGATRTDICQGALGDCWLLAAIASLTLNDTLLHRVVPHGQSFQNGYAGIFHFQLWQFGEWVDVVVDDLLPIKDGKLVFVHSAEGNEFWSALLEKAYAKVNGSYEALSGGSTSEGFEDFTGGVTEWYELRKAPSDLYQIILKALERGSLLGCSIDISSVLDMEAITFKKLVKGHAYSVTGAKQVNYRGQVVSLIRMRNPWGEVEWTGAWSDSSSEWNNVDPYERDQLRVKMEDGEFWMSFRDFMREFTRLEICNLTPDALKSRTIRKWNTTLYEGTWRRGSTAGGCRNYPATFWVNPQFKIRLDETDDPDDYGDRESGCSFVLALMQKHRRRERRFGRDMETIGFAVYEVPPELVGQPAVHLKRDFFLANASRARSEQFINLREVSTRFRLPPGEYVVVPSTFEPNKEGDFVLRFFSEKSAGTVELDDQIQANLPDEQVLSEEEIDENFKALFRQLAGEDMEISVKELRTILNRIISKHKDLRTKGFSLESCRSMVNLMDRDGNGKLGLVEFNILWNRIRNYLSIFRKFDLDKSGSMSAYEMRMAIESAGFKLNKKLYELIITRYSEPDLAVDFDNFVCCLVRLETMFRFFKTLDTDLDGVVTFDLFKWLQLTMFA
Method: To evaluate inhibitory activity, stock solutions (40 times concentrated) of exemplary compounds of the invention were prepared in 100% anhydrous DMSO and 5 μL of each inhibitor preparation were aliquoted into each of three wells of a 96-well plate. Recombinant human calpain I, prepared by the method of Meyer et al. (Biochem. […] To start the reaction, 20 μL of 50 mM CaCl2 in assay buffer was added to all wells of the plate, excepting three, which were used as background signal baseline controls. Substrate hydrolysis was monitored every 5 minutes for a total of 30 minutes. […] Inhibition of calpain I activity was calculated as the percent decrease in the rate of substrate hydrolysis in the presence of inhibitor (VI) relative to the rate in its absence (VO). Comparison between VO and VI was made within the linear range for substrate hydrolysis. For screening, compounds were tested at 10, 1.0, and 0.1 μM. […] The results were plotted as % inhibition versus log inhibitor concentration and the IC50 was calculated from linear regression of the data. Apparent second order rate constants were determined from analysis of reaction progress curves under pseudo-first order conditions. Each determination represents the means of three or more independent single cuvette analyses continually monitored via a Perkin-Elmer LS50B spectrofluorimeter. The rate of inhibition of hydrolysis was obtained by fitting the curve to the exponential equation (1): […]

thrombin = target: T5, thrombin (Homo sapiens, UniProt P00734); assay: Inhibition of thrombin; conditions: for inhibition at 10 µM: read-out: Thrombin % I @ 10 uM
T5 construct: purchased Sigma Chem. Co. T-7009

T3 sequence (P07711 114-288 limits assumed): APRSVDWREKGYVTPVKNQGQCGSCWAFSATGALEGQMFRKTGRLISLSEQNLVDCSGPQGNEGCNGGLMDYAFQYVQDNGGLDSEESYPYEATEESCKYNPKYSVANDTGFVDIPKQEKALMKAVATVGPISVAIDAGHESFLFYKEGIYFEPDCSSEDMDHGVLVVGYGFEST
T3 sequence (P07711 292-333 limits assumed): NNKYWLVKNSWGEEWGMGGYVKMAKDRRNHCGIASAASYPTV

inhibition at 1 µM (cathepsin B; Table III, 1 uM) [%]	pIC50 (cathepsin B; Table III)	inhibition at 10 µM (α-chymotrypsin; Table III, 10 uM) [%]	inhibition at 1 µM (cathepsin L; Table III, 1 uM) [%]	pIC50 [1]	inhibition at 0.1 µM [1] [%]	inhibition at 10 µM (thrombin; Table III, 10 uM) [%]	Chymotrypsin % I @ 10 uM (α-chymotrypsin; Table III, 10 uM) [%]	Thrombin % I @ 10 uM (thrombin; Table III, 10 uM) [%]	Cat B % I @ 1 uM (cathepsin B; Table III, 1 uM) [%]	Cat L % I @ 1 uM (cathepsin L; Table III, 1 uM) [%]	Calpain % I @ 0.1 uM [1] [%]	Compound	inhibition at 1 µM (cathepsin B) [%]	inhibition at 10 µM (α-chymotrypsin) [%]	inhibition at 1 µM (cathepsin L) [%]	inhibition at 10 µM (thrombin) [%]
98	7.80	49	100	8.10	96	16	–	–	–	–	–	CS(=O)(=O)N[C@@H](C(=O)N[C@H](C=O)Cc1ccccc1)c1cccs1 [Compound 98]	–	–	–	–
100	–	5	100	7.07	55	7	–	–	–	–	–	O=C[C@H](Cc1ccccc1)NC(=O)[C@@H](COCc1ccccc1)NC(=O)C(c1ccccc1)c1ccccc1 [Compound 45]	–	–	–	–
100	–	5	100	7.51	92	11	–	–	–	–	–	O=C[C@H](Cc1ccccc1)NC(=O)[C@@H](Cc1c[nH]c2ccccc12)NS(=O)(=O)c1ccccc1 [Compound 71]	–	–	–	–
100	–	6	100	7.62	90	15	–	–	–	–	–	O=C[C@H](Cc1ccccc1)NC(=O)[C@@H](COCc1ccccc1)NS(=O)(=O)c1ccc(F)cc1 [Compound 46]	–	–	–	–
87	–	10	100	–	68	0	–	–	–	–	–	O=C[C@H](Cc1ccccc1)NC(=O)[C@@H](COCc1ccccc1)NC(=O)OCc1ccccc1 [Compound 64]	–	–	–	–
100	–	3	100	7.89	95	4	–	–	–	–	–	O=C[C@H](Cc1ccccc1)NC(=O)[C@@H](COCc1ccccc1)NS(=O)(=O)c1cccs1 [Compound 54]	–	–	–	–
90	–	14	96	7.77	87	7	–	–	–	–	–	CC(=O)N[C@H](COCc1ccccc1)C(=O)N[C@H](C=O)Cc1ccccc1 [Compound 42]	–	–	–	–
64	–	6	100	–	73	1	–	–	–	–	–	Cc1ccc(S(=O)(=O)N2C[C@@H](C#N)C[C@@H]2C(=O)N[C@H](C=O)Cc2ccccc2)cc1 [Compound 129]	–	–	–	–
68	–	3	98	–	19	0	–	–	–	–	–	CON=C[C@H](Cc1ccccc1)NC(=O)[C@@H](COCc1ccccc1)NS(C)(=O)=O [Compound 119]	–	–	–	–
97	–	–	100	7.17	63	–	11	2	–	–	–	CS(=O)(=O)NC(CCSCc1ccccc1)C(=O)N[C@H](C=O)Cc1ccccc1 (single isomer, unassigned) [Compound 107]	–	–	–	–
–	–	–	–	6.76	–	–	14	0	90	100	49	CS(=O)(=O)N1Cc2ccccc2CC1C(=O)N[C@H](C=O)Cc1ccccc1 (single isomer, unassigned) [Compound 96]	–	–	–	–
99	–	1	100	8.10	89	0	–	–	–	–	–	CS(=O)(=O)N[C@H](COCc1ccccc1)C(=O)N[C@@H](Cc1ccccc1)C(O)S(=O)(=O)O (stereo partly shown) [Compound 128]	–	–	–	–
99	–	8	93	6.00	47	1	–	–	–	–	–	CN(Cc1ccccc1)C(=O)CC[C@@H](NS(C)(=O)=O)C(=O)N[C@H](C=O)Cc1ccccc1 [Compound 79]	–	–	–	–
100	–	13	100	8.52	98	0	–	–	–	–	–	CS(=O)(=O)N[C@H](COCc1ccccc1)C(=O)N[C@H](C=O)CCCCNS(=O)(=O)c1ccccc1 [Compound 122]	–	–	–	–
99	–	1	100	7.57	75	4	–	–	–	–	–	Cc1ccc(S(=O)(=O)N[C@H](COCc2ccccc2)C(=O)N[C@H](C=O)Cc2ccccc2)cc1 [Compound 49]	–	–	–	–
2	–	6	16	–	5	0	–	–	–	–	–	CS(=O)(=O)N[C@H](COCc1ccccc1)C(=O)N[C@H]1CCCCNC1=O [Compound 126]	–	–	–	–
85	–	4	89	7.41	71	0	–	–	–	–	–	CS(=O)(=O)N[C@H](CCc1ccccc1)C(=O)N[C@H](C=O)Cc1ccccc1 [Compound 62] (Ms-[d(hPhe)]-Phe-aldehyde)	–	–	–	–
90	–	12	100	7.60	87	2	–	–	–	–	–	Cc1noc(C)c1S(=O)(=O)N[C@H](COCc1ccccc1)C(=O)N[C@H](C=O)Cc1ccccc1 [Compound 55]	–	–	–	–
96	–	2	98	8.05	91	6	–	–	–	–	–	CN(C)S(=O)(=O)N[C@H](COCc1ccccc1)C(=O)N[C@H](C=O)Cc1ccccc1 [Compound 47]	–	–	–	–
100	–	13	100	7.48	83	6	–	–	–	–	–	O=C[C@H](Cc1ccccc1)NC(=O)[C@@H](Cc1ccccc1)NS(=O)(=O)c1cccc2cccnc12 [Compound 74]	–	–	–	–
79	6.60	30	90	7.89	88	1	–	–	–	–	–	CS(=O)(=O)N[C@@H](C(=O)N[C@H](C=O)Cc1ccccc1)c1ccccc1 [Compound 76] (Ms-[dPhg]-Phe-aldehyde)	–	–	–	–
–	–	–	100	6.56	–	–	0	1	38	–	17	CS(=O)(=O)N1Cc2ccccc2CC1C(=O)N[C@H](C=O)Cc1ccccc1 (single isomer, unassigned) [Compound 95]	–	–	–	–

Compound	inhibition at 1 µM (cathepsin B; Table III, 1 uM) [%]	pIC50 (cathepsin B; Table III)	inhibition at 10 µM (α-chymotrypsin; Table III, 10 uM) [%]	inhibition at 1 µM (cathepsin L; Table III, 1 uM) [%]	pIC50 [1]	inhibition at 0.1 µM [1] [%]	inhibition at 10 µM (thrombin; Table III, 10 uM) [%]	Chymotrypsin % I @ 10 uM (α-chymotrypsin; Table III, 10 uM) [%]	Thrombin % I @ 10 uM (thrombin; Table III, 10 uM) [%]	Cat B % I @ 1 uM (cathepsin B; Table III, 1 uM) [%]	Cat L % I @ 1 uM (cathepsin L; Table III, 1 uM) [%]	Calpain % I @ 0.1 uM [1] [%]	inhibition at 1 µM (cathepsin B) [%]	inhibition at 10 µM (α-chymotrypsin) [%]	inhibition at 1 µM (cathepsin L) [%]	inhibition at 10 µM (thrombin) [%]
CC(C)C[C@@H](NC(=O)OCc1ccccc1)C(=O)N[C@H](C=O)Cc1ccccc1 [Compound 85] (Cbz-[dL]-Phe-aldehyde)	–	–	–	–	6.96	44	–	–	–	–	–	–	44	6	89	0
